In ChEMBL document CHEMBL1122575, “Dependence of beta-lactamase stability on substructures within beta-lactam antibiotics” (J Med Chem, 1984):
≈ marks a conversion by molar mass, not a printed value. Values belong to the compound of their own block, whether it stands above or below them.

Columns and labels:
Escherichia coli [1] = assay: Compound was evaluated for the antibacterial activity against Escherichia coli (RTEM+ organism).; assay type: functional
Escherichia coli [2] = assay: Compound was evaluated for the antibacterial activity against Escherichia coli with strain NIHJ (beta-Lactamase-negative (LAC-); assay type: functional
Enterobacter cloacae [3] = assay: Compound was evaluated for the antibacterial activity against Enterobacter cloacae with the strains beta-Lactamase-positive (LAC+); assay type: functional
Escherichia coli [4] = assay: Compound was evaluated for the relative Vmax against Escherichia coli with strain 609 (beta-Lactamase-positive (LAC+)); assay type: ADME, organism-based
Escherichia coli [5] = assay: Compound was evaluated for the antibacterial activity against Escherichia coli with strain 609 (beta-Lactamase-positive (LAC+)); assay type: functional
Escherichia coli [6] = assay: Compound was evaluated for the antibacterial activity against Escherichia coli with strain NIHJ (beta-Lactamase-negative (LAC-)); assay type: functional
Escherichia coli [7] = assay: Compound was evaluated for the antibacterial activity against Escherichia coli (RTEM+ organism); assay type: functional
Escherichia coli [8] = assay: Compound was evaluated for the antibacterial activity against Escherichia coli with strain beta-Lactamase-negative (LAC-); assay type: functional
Enterobacter cloacae [9] = assay: Compound was evaluated for the antibacterial activity against Enterobacter cloacae with strain 233 (beta-Lactamase-positive (LAC+)); assay type: functional
Escherichia coli [10] = assay: Compound was evaluated for the antibacterial activity against Escherichia coli with strain JC-S (beta-Lactamase-negative (LAC-)); assay type: functional
[11] = Relative hydrolysis rate (RHR) was evaluated against K1 enzyme; assay type: ADME
[12] = Relative hydrolysis rate (RHR) was evaluated against RTEM enzyme; assay type: ADME
Staphylococcus aureus [13] = assay: Relative hydrolysis rate (RHR) was evaluated against Staphylococcus aureus with strain PC1.; assay type: ADME, organism-based
Staphylococcus aureus [14] = assay: Compound was evaluated for the antibacterial activity against Staphylococcus aureus with strain beta-Lactamase-negative (LAC-); assay type: functional
Staphylococcus aureus [15] = assay: Compound was evaluated for the antibacterial activity against Staphylococcus aureus with strain beta-Lactamase-positive (LAC+); assay type: functional
[16] = Relative Vmax was reported; assay type: ADME

- MIC (Escherichia coli [1]): 0.8 mg/L
- MIC (Escherichia coli [2]): 0.8 mg/L
Structure (SMILES): CO[C@@]1(NC(=O)CSCC#N)C(=O)N2C(C(=O)[O-])=C(CSc3nnnn3C)CS[C@@H]21.[Na+] [CEFMETAZOLE SODIUM]

- MIC (Enterobacter cloacae [3]): > 100 mg/L
Structure (SMILES): Cn1nnnc1SCC1=C(C(=O)O)N2C(=O)[C@@H](NC(=O)Cc3csc(N)n3)C2SC1 (stereo partly drawn)

- RVmax (Escherichia coli [4]): < 0.1
- MIC (Escherichia coli [5]): 25 mg/L (≈ 86.1 µM)
- MIC (Escherichia coli [6]): 12.5 mg/L (≈ 43 µM)
Structure (SMILES): CC(O)[C@@H]1C(=O)N2C(C(=O)O)=C(SCCN)SC12 (stereo partly drawn)

- MIC (Escherichia coli [7]): 0.8 mg/L (≈ 2.54 µM)
- MIC (Escherichia coli [8]): 0.8 mg/L (≈ 2.54 µM)
Structure (SMILES): CC(=O)NCCSC1=C(C(=O)O)N2C(=O)[C@H]([C@H](C)O)C2C1 (stereo partly drawn)

- MIC (Escherichia coli [1]): 12.5 mg/L (≈ 28.3 µM)
- MIC (Escherichia coli [2]): 0.8 mg/L (≈ 1.81 µM)
Structure (SMILES): Cn1nnnc1SCC1=C(C(=O)O)N2C(=O)[C@@H](NC(=O)CSCC#N)C2SC1 (stereo partly drawn)

- MIC (Escherichia coli [1]): 200 mg/L (≈ 400 µM)
- MIC (Escherichia coli [2]): > 200 mg/L
Structure (SMILES): CCCO[C@@]1(NC(=O)CSCC#N)C(=O)N2C(C(=O)O)=C(CSc3nnnn3C)CSC21 (stereo partly drawn)

- MIC (Enterobacter cloacae [9]): 0.4 mg/L (≈ 0.816 µM)
- MIC (Escherichia coli [1]): 50 mg/L (≈ 102 µM)
- MIC (Escherichia coli [10]): 0.2 mg/L (≈ 0.408 µM)
Structure (SMILES): Cn1nnnc1SCC1=C(C(=O)O)N2C(=O)[C@@H](NC(=O)C(C(=O)O)c3ccc(O)cc3)C2OC1 (stereo partly drawn)

- RHR [11]: 100
- RHR [12]: 100
Structure (SMILES): CO/N=C(\C(=O)N[C@@H]1C(=O)N2C(C(=O)O)=C(COC(C)=O)CS[C@H]12)c1csc(N)n1 [CEFOTAXIME]

- MIC (Enterobacter cloacae [3]): 1.6 mg/L (≈ 3.13 µM)
Structure (SMILES): CO/N=C(/C(=O)N[C@@H]1C(=O)N2C(C(=O)O)=C(CSc3nnnn3C)CSC12)c1csc(N)n1 (stereo partly drawn)

- MIC (Enterobacter cloacae [9]): 0.2 mg/L (≈ 0.384 µM)
- MIC (Escherichia coli [1]): 0.4 mg/L (≈ 0.769 µM)
- MIC (Escherichia coli [10]): 0.2 mg/L (≈ 0.384 µM)
Structure (SMILES): CO[C@@]1(NC(=O)C(C(=O)O)c2ccc(O)cc2)C(=O)N2C(C(=O)O)=C(CSc3nnnn3C)COC21 (stereo partly drawn)

- RHR (Staphylococcus aureus [13]): < 0.5
- MIC (Staphylococcus aureus [14]): 0.1 mg/L
- MIC (Staphylococcus aureus [15]): 0.2 mg/L
Structure (SMILES): O=C(CSc1cc(Cl)nc(Cl)c1)N[C@H]1CN(OS(=O)(=O)[O-])C1=O.[K+]

- MIC (Escherichia coli [1]): 50 mg/L (≈ 103 µM)
- MIC (Escherichia coli [2]): 50 mg/L (≈ 103 µM)
Structure (SMILES): CCO[C@@]1(NC(=O)CSCC#N)C(=O)N2C(C(=O)O)=C(CSc3nnnn3C)CSC21 (stereo partly drawn)

- MIC (Enterobacter cloacae [9]): 100 mg/L (≈ 210 µM)
- MIC (Escherichia coli [1]): 0.8 mg/L (≈ 1.68 µM)
- MIC (Escherichia coli [10]): 0.1 mg/L (≈ 0.21 µM)
Structure (SMILES): CO[C@@]1(NC(=O)Cc2ccc(O)cc2)C(=O)N2C(C(=O)O)=C(CSc3nnnn3C)COC21 (stereo partly drawn)

- RVmax [16]: 2
Structure (SMILES): CC1(C)SC2[C@H](NC(=O)c3ccccc3)C(=O)N2C1C(=O)O (stereo partly drawn)

- RHR [11]: 3
- RHR [12]: < 0.1
Structure (SMILES): CC(=O)OCC1=C(C(=O)O)N2C(=O)[C@@H](NC(=O)/C(=N/OCC(=O)O)c3csc(N)n3)C2SC1 (stereo partly drawn)

- RVmax (Escherichia coli [4]): < 0.1
- MIC (Escherichia coli [5]): 3.1 mg/L (≈ 11.2 µM)
- MIC (Escherichia coli [6]): 1.5 mg/L (≈ 5.43 µM)
Structure (SMILES): NCCSC1=C(C(=O)O)N2C(=O)[C@H](CO)C2S1 (stereo partly drawn)

- RHR [11]: 101
- RHR [12]: 2111
Structure (SMILES): CC(=O)OCC1=C(C(=O)O)N2C(=O)[C@@H](NC(=O)/C(=N\OCC(=O)O)c3csc(N)n3)C2SC1 (stereo partly drawn)

- RHR [12]: 19
- MIC (Escherichia coli [6]): 0.2 mg/L (≈ 0.408 µM)
Structure (SMILES): Cn1nnnc1SCC1=C(C(=O)O)N2C(=O)C(NC(=O)C(C(=O)O)c3ccc(O)cc3)C2OC1 (stereo not drawn)

- RVmax (Escherichia coli [4]): 75
- MIC (Escherichia coli [5]): 50 mg/L (≈ 203 µM)
- MIC (Escherichia coli [6]): 0.8 mg/L (≈ 3.25 µM)
Structure (SMILES): NCCSC1=C(C(=O)O)N2C(=O)CC2S1 (stereo not drawn)

- MIC (Escherichia coli [7]): 1.6 mg/L
- MIC (Escherichia coli [8]): 0.2 mg/L
Structure (SMILES): CC(=O)NCCSC1=C(C(=O)O)N2C(=O)[C@@H](C(C)OS(=O)(=O)[O-])C2C1.[K+] (stereo partly drawn)

- RHR (Staphylococcus aureus [13]): 1
- MIC (Staphylococcus aureus [14]): 0.1 mg/L (≈ 0.24 µM)
- MIC (Staphylococcus aureus [15]): 1.6 mg/L (≈ 3.84 µM)
Structure (SMILES): CC1[C@H](NC(=O)CSc2cc(Cl)nc(Cl)c2)C(=O)N1OS(=O)(=O)O (single isomer, unassigned)

- RVmax (Escherichia coli [4]): 10
- MIC (Escherichia coli [5]): 25 mg/L (≈ 90.5 µM)
- MIC (Escherichia coli [6]): 3.1 mg/L (≈ 11.2 µM)
Structure (SMILES): NCCSC1=C(C(=O)O)N2C(=O)[C@@H](CO)C2S1 (stereo partly drawn)

- RHR (Staphylococcus aureus [13]): 2.6
- MIC (Staphylococcus aureus [14]): 0.2 mg/L
- MIC (Staphylococcus aureus [15]): 6.3 mg/L
Structure (SMILES): C[C@H]1[C@H](NC(=O)CSc2cc(Cl)nc(Cl)c2)C(=O)N1OS(=O)(=O)[O-].[K+]

- MIC (Escherichia coli [7]): 25 mg/L (≈ 79.5 µM)
- MIC (Escherichia coli [8]): 0.2 mg/L (≈ 0.636 µM)
Structure (SMILES): CC(=O)NCCSC1=C(C(=O)O)N2C(=O)[C@@H](C(C)O)C2C1 (stereo partly drawn)

- MIC (Escherichia coli [7]): 6.2 mg/L (≈ 19.7 µM)
- MIC (Escherichia coli [8]): 6.2 mg/L (≈ 19.7 µM)
Structure (SMILES): CC(=O)NCCSC1=C(C(=O)O)N2C(=O)[C@H]([C@@H](C)O)C2C1 (stereo partly drawn)

- MIC (Enterobacter cloacae [9]): > 100 mg/L
- MIC (Escherichia coli [1]): > 100 mg/L
- MIC (Escherichia coli [10]): 0.8 mg/L (≈ 1.79 µM)
Structure (SMILES): Cn1nnnc1SCC1=C(C(=O)O)N2C(=O)[C@@H](NC(=O)Cc3ccc(O)cc3)C2OC1 (stereo partly drawn)

- RVmax (Escherichia coli [4]): < 0.1
- MIC (Escherichia coli [5]): 1.5 mg/L (≈ 5.17 µM)
- MIC (Escherichia coli [6]): 0.8 mg/L (≈ 2.76 µM)
Structure (SMILES): CC(O)[C@H]1C(=O)N2C(C(=O)O)=C(SCCN)SC12 (stereo partly drawn)
